Data published in US7973051B2 (Hoffman-La Roche Inc., priority 2007, dated 2011).

Target: T1, human liver FBPase (Homo sapiens, UniProt P09467)
T1 construct: made in house; host or cells: E. coli
T1 sequence (P09467 2-338 limits assumed): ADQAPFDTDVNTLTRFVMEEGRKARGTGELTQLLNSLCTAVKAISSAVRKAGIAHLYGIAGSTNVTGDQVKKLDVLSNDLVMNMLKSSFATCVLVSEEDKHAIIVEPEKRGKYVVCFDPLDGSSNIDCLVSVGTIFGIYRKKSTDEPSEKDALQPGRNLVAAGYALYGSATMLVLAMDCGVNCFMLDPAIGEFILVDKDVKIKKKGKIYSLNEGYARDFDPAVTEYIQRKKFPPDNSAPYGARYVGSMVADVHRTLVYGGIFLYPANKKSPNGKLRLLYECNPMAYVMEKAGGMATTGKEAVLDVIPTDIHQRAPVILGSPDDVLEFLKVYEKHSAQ
Assay: FBPase assay: inorganic phosphate release (malachite green)
Type: biochemical
Conditions: recombinant human liver FBPase, 50 μM fructose-1,6-bisphosphate, read-out at 620 nm
Summary of the method: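 Recombinant human liver FBPase (E. coli-expressed, >90% pure), 25 ng per reaction, with 50 μM fructose-1,6-bisphosphate in 50 mM HEPES-KOH pH 7.2, 2 mM MgCl2, 2 mM EDTA, 1 mM DTT, 1% DMSO. After 50 min at room temperature, released phosphate was complexed with malachite green/ammonium molybdate and read at 620 nm.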

Row | SMILES | IC50
1 | CCc1sc(NC(=O)NS(=O)(=O)c2cc(C)c(CCOC(C)=O)s2)nc1C(C)C [Example 75, 2-[5-({[(5-Ethyl-4-isopropyl-1,3-thiazol-2-yl)carbamoyl]amino}sulfonyl)-3-methyl-2-thienyl]ethyl acetate] | 0.256 µM
2 | CCc1sc(NC(=O)NS(=O)(=O)c2cc(C)c(CCOC)s2)nc1C(C)C [Example 77, N-[(5-Ethyl-4-isopropyl-1,3-thiazol-2-yl)carbamoyl]-5-(2-methoxyethyl)-4-methylthiophene-2-sulfonamide] | 0.366 µM
3 | CCc1sc(NC(=O)NS(=O)(=O)c2csc(C)c2)nc1C(C)C [Example 78, N-[(5-Ethyl-4-isopropyl-1,3-thiazol-2-yl)carbamoyl]-5-methylthiophene-3-sulfonamide] | 0.168 µM
4 | CCc1sc(NC(=O)NS(=O)(=O)c2cc(C)c(CCOC(C)=O)s2)nc1-c1ccccc1 [Example 80, 2-[5-({[(5-Ethyl-4-phenyl-1,3-thiazol-2-yl)carbamoyl]amino}sulfonyl)-3-methyl-2-thienyl]ethyl acetate] | 0.161 µM
5 | CCc1nc(NC(=O)NS(=O)(=O)c2cc(C)c(CCOC)s2)sc1SC [Example 82, N-{[4-Ethyl-5-(methylthio)-1,3-thiazol-2-yl]carbamoyl}-5-(2-methoxyethyl)-4-methylthiophene-2-sulfonamide] | 0.144 µM
6 | CCc1nc(NC(=O)NS(=O)(=O)c2cc(C)c(CCOC(C)=O)s2)sc1SC [Example 83, 2-{5-[({[4-Ethyl-5-(methylthio)-1,3-thiazol-2-yl]carbamoyl}amino)sulfonyl]-3-methyl-2-thienyl}ethyl acetate] | 0.134 µM
7 | CSc1sc(NC(=O)NS(=O)(=O)c2cc(C)c(CCOC(C)=O)s2)nc1C [Example 85, 2-{3-Methyl-5-[({[4-methyl-5-(methylthio)-1,3-thiazol-2-yl]carbamoyl}amino)sulfonyl]-2-thienyl}ethyl acetate] | 0.16 µM
8 | COCc1nc(NC(=O)NS(=O)(=O)c2cc(C)c(CCOC(C)=O)s2)sc1SC [Example 87, 2-{5-[({[4-(Methoxymethyl)-5-(methylthio)-1,3-thiazol-2-yl]carbamoyl}amino)sulfonyl]-3-methyl-2-thienyl}ethyl acetate] | 0.501 µM
9 | COc1sc(NC(=O)NS(=O)(=O)c2csc(C)c2)nc1C [Example 95, N-[(5-Methoxy-4-methyl-1,3-thiazol-2-yl)carbamoyl]-5-methylthiophene-3-sulfonamide] | 0.594 µM
10 | COCCc1sc(S(=O)(=O)NC(=O)Nc2nc(C)c(OC)s2)cc1C [Example 96, 5-(2-Methoxyethyl)-N-[(5-methoxy-4-methyl-1,3-thiazol-2-yl)carbamoyl]-4-methylthiophene-2-sulfonamide] | 0.637 µM
11 | COCCc1sc(S(=O)(=O)NC(=O)Nc2ncc(OC)s2)cc1C [Example 97, 5-(2-Methoxyethyl)-N-[(5-methoxy-1,3-thiazol-2-yl)carbamoyl]-4-methylthiophene-2-sulfonamide] | 0.652 µM
12 | Cc1cc(S(=O)(=O)NC(=O)Nc2nc(C)c(SC(F)(F)F)s2)sc1CCO [Example 98, 6-(2-Hydroxyethyl)-4-methyl-N-({4-methyl-5-[(trifluoromethyl)thio]-1,3-thiazol-2-yl}carbamoyl)thiophene-2-sulfonamide] | 0.177 µM

Further lines, results first:

Row | IC50 | SMILES
13 | 0.28 µM | Cc1cc(S(=O)(=O)NC(=O)Nc2nc(-c3ccccc3)c(C)s2)sc1CCO [Example 76, 5-(2-Hydroxyethyl)-4-methyl-N-[(5-methyl-4-phenyl-1,3-thiazol-2-yl)carbamoyl]thiophene-2-sulfonamide]
14 | 0.188 µM | CCc1sc(NC(=O)NS(=O)(=O)c2cc(C)c(CCO)s2)nc1C(C)C [Example 79, N-[(5-Ethyl-4-isopropyl-1,3-thiazol-2-yl)carbamoyl]-5-(2-hydroxyethyl)-4-methylthiophene-2-sulfonamide]
15 | 0.102 µM | CCc1sc(NC(=O)NS(=O)(=O)c2cc(C)c(CCO)s2)nc1-c1ccccc1 [Example 81, N-[(5-Ethyl-4-phenyl-1,3-thiazol-2-yl)carbamoyl]-5-(2-hydroxyethyl)-4-methylthiophene-2-sulfonamide]
16 | 0.078 µM | CCc1nc(NC(=O)NS(=O)(=O)c2cc(C)c(CCO)s2)sc1SC [Example 84, N-{[4-Ethyl-5-(methylthio)-1,3-thiazol-2-yl]carbamoyl}-5-(2-hydroxyethyl)-4-methylthiophene-2-sulfonamide]
17 | 0.071 µM | CSc1sc(NC(=O)NS(=O)(=O)c2cc(C)c(CCO)s2)nc1C [Example 86, 5-(2-Hydroxyethyl)-4-methyl-N-{[4-methyl-5-(methylthio)-1,3-thiazol-2-yl]carbamoyl}thiophene-2-sulfonamide]
18 | 0.369 µM | COCc1nc(NC(=O)NS(=O)(=O)c2cc(C)c(CCO)s2)sc1SC [Example 88, 5-(2-Hydroxyethyl)-N-{[4-(methoxymethyl)-5-(methylthio)-1,3-thiazol-2-yl]carbamoyl}-4-methylthiophene-2-sulfonamide]
19 | 0.263 µM | COCCc1sc(S(=O)(=O)NC(=O)Nc2nc3c(OC)cccc3s2)cc1C [Example 89, N-[(4-Methoxy-1,3-benzothiazol-2-yl)carbamoyl]-5-(2-methoxyethyl)-4-methylthiophene-2-sulfonamide]
20 | 0.842 µM | COCCc1sc(S(=O)(=O)NC(=O)Nc2nc3ccc(OC)nc3s2)cc1C [Example 90, 5-(2-Methoxyethyl)-N-[(5-methoxy[1,3]thiazolo[5,4-b]pyridin-2-yl)carbamoyl]-4-methylthiophene-2-sulfonamide]
21 | 0.375 µM | COCCc1sc(S(=O)(=O)NC(=O)Nc2nc3c(C)cccc3s2)cc1C [Example 91, 5-(2-Methoxyethyl)-4-methyl-N-[(4-methyl-1,3-benzothiazol-2-yl)carbamoyl]thiophene-2-sulfonamide]
22 | 0.038 µM | COc1ccc(Cl)c2sc(NC(=O)NS(=O)(=O)c3cc(C)c(CCO)s3)nc12 [Example 92, N-[(7-Chloro-4-methoxy-1,3-benzothiazol-2-yl)carbamoyl]-5-(2-hydroxyethyl)-4-methylthiophene-2-sulfonamide]
23 | 0.141 µM | COc1cccc2sc(NC(=O)NS(=O)(=O)c3cc(C)c(CCO)s3)nc12 [Example 93, 5-(2-Hydroxyethyl)-N-[(4-methoxy-1,3-benzothiazol-2-yl)carbamoyl]-4-methylthiophene-2-sulfonamide]
24 | 0.064 µM | Cc1cc(S(=O)(=O)NC(=O)Nc2nc3c(C)cccc3s2)sc1CCO [Example 94, 5-(2-Hydroxyethyl)-4-methyl-N-[(4-methyl-1,3-benzothiazol-2-yl)carbamoyl]thiophene-2-sulfonamide]
